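Growth conditions: 96-well plates. Treatment: test compound, 48 hours, 5 concentrations. Analysis: linear interpolation between bracketing concentrations; unreached endpoints set to highest concentration. TGI is the concentration that stops growth completely.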
Key:
Assay in all cases: NCI tumour cell line growth inhibition, 48 h
LOX IMVI melanoma = tested on: LOX IMVI melanoma
CCRF-CEM leukemia = tested on: CCRF-CEM leukemia
RXF 393 renal = tested on: RXF 393 renal
MDA-N = tested on: MDA-N
BT-549 breast = tested on: BT-549 breast
SN12C renal = tested on: SN12C renal
CAKI-1 renal = tested on: CAKI-1 renal
SNB-19 CNS = tested on: SNB-19 CNS
NCI-H522 lung = tested on: NCI-H522 lung
SNB-75 CNS = tested on: SNB-75 CNS
HOP-92 NSCLC = tested on: HOP-92 NSCLC
A498 renal = tested on: A498 renal
HCC-2998 colon = tested on: HCC-2998 colon
HOP-62 NSCLC = tested on: HOP-62 NSCLC
SK-OV-3 ovarian = tested on: SK-OV-3 ovarian

SMILES	TGI (LOX IMVI melanoma) [µM]	TGI (CCRF-CEM leukemia) [µM]	TGI (RXF 393 renal) [µM]	TGI (MDA-N) [µM]	TGI (BT-549 breast) [µM]	TGI (SN12C renal) [µM]	TGI (CAKI-1 renal) [µM]	TGI (SNB-19 CNS) [µM]	TGI (NCI-H522 lung) [µM]	TGI (SNB-75 CNS) [µM]	TGI (HOP-92 NSCLC) [µM]	TGI (A498 renal) [µM]	TGI (HCC-2998 colon) [µM]	TGI (HOP-62 NSCLC) [µM]	TGI (SK-OV-3 ovarian) [µM]
CC(CN1NC12CCCC2)N1NC12CCCC2 (stereo not given)	> 100	> 100	> 100	> 100	> 100	> 100	> 100	> 100	> 100	> 100	> 100	> 100	> 100	> 100	> 100
COC(=O)NC(=O)NC(Cc1ccccc1)NC(=O)OCc1ccccc1 (stereo not given)	> 100	> 100	45.4	> 100	> 100	> 100	> 100	> 100	> 100	50.5	42.5	91.5	> 100	> 100	57.5
CC(C)=CCC[C@@H](C)[C@H]1CC[C@@]2(C)[C@@H]3CC[C@H]4C(C)(C)[C@@H](O)CC[C@@]45C[C@@]35CC[C@]12C	56.5	63.5	45.1	> 100	55.6	41.8	> 100	> 100	49.3	> 100	44.2	> 94.3	> 31.6	59.6	> 100
CC[C@@H]1/C=C/C=C/C[C@H](C)[C@@H](O)[C@@H](C)C(=O)[C@H](C)[C@@H](O)[C@H](C)C(=O)[C@H](C)[C@@H](O)[C@H](C)/C=C/C(=O)O[C@H]2[C@@H](C)[C@@H](CC1)O[C@@]1(CC[C@@H](C)[C@@H](CC(C)O)O1)[C@@H]2C (stereo not given in full)	> 25	> 14.4	9.44	> 17.6	24.4	9.9	> 25	> 25	11.4	> 7.9	> 20	11	8.52	> 25	> 21.3
Cc1cn([C@@H]2O[C@H](CO[Si](C)(C)C(C)(C)C)[C@]3(O[C@H]3C(=O)NO)[C@H]2O[Si](C)(C)C(C)(C)C)c(=O)[nH]c1=O	3.1	2.76	3.34	3.01	3.29	3.08	4.31	3.18	3.12	3.71	4.17	3.33	2.97	3.52	3.66
O=C1Cc2c(-c3cccs3)cc(-c3ccccc3)nc2-c2ccccc2N1	> 100	> 100	> 100	> 100	> 100	> 100	> 100	> 100	> 100	41.9	> 100	> 100	> 100	> 100	> 100
CC(C#N)(c1ccccc1)N(CCc1ccccc1)C(=O)Oc1ccccc1 (stereo not given)	> 100	> 100	> 100	> 100	> 100	> 100	> 100	> 100	> 100	81.6	65	> 100	> 100	> 100	> 100
CC1=C(O)C(=O)C=C2C1=CC=C1[C@@]2(C)CC[C@@]2(C)C3C[C@@H](C)C(=O)[C@@H](O)[C@]3(C)CC[C@]12C (stereo not given in full)	3.02	1.87	3.49	3.3	3.4	4.89	2.83	9.23	2.34	17.3	3.87	12.4	9.65	11.6	22.2
O=C1C2C3C4C1C1C2[C@H](OCc2ccccc2)C3C1[C@H]4OCc1ccccc1 (stereo not given in full)	> 100	> 100	> 100	> 100	> 100	> 100	> 100	> 100	57.9	> 100	66.3	> 100	> 100	> 100	> 100
